Experimental data: article PMC12621189, “Optimization of Selective and CNS Penetrant Alkyne-Based TREK Inhibitors: The Discovery and Characterization of ONO-9517601 (VU6022856) and ONO-7927846 (VU6024391)” (Journal of Medicinal Chemistry, 2025)
Values after ≈ are worked out from the molar mass of the structure shown. Where two headings read alike, the source gives them in different places.

Legend:
[1] = biological target: T1, rat TREK-1 (Rattus norvegicus, UniProt Q920B6); test: rat TREK-1 thallium flux; type: cell-based; conditions: read-out: TREK-1 IC50 (rat, Tl+)
T1 sequence (Q920B6 1-426): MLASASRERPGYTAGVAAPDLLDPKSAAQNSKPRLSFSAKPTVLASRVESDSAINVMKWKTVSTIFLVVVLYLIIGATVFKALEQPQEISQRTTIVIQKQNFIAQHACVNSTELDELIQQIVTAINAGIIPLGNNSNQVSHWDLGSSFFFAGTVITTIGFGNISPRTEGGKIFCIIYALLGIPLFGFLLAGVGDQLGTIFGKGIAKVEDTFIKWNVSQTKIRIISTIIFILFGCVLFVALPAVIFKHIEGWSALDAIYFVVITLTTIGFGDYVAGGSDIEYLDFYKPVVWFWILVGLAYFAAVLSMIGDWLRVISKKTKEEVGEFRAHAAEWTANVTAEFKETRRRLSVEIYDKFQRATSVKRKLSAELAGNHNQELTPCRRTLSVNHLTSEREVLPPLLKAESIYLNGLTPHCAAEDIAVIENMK

[2] = biological target: mouse TREK-1 (Mus musculus, UniProt P97438); test: mouse TREK-1 thallium flux; type: cell-based; conditions: read-out: TREK-1 IC50 (mouse, Tl+)
Chain of mouse TREK-1 (P97438 whole entry): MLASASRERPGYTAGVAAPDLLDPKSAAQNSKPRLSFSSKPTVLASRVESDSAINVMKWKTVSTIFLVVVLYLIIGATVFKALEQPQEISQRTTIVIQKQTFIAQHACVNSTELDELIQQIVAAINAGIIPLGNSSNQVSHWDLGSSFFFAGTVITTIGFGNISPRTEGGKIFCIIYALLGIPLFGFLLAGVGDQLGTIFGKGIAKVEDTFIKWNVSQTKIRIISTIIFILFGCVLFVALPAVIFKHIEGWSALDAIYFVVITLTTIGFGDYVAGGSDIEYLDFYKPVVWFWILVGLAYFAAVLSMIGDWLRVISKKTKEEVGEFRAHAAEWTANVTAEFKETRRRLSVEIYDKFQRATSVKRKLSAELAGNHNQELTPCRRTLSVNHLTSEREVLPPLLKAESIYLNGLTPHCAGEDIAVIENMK

[3] = biological target: T1, rat TREK-1; test: rat TREK-1 manual patch clamp; type: cell-based; conditions: read-out: TREK-1 IC50 (rat, MPC)
[4] = biological target: T2, human TREK-2 (Homo sapiens, UniProt P57789); test: hTREK-2 manual patch clamp assay; type: cell-based; conditions: human TREK-2, manual patch clamp; read-out: TREK-2 IC50 (human, MPC)
T2 construct: expressed in transfected cells
T2 sequence (P57789 whole entry): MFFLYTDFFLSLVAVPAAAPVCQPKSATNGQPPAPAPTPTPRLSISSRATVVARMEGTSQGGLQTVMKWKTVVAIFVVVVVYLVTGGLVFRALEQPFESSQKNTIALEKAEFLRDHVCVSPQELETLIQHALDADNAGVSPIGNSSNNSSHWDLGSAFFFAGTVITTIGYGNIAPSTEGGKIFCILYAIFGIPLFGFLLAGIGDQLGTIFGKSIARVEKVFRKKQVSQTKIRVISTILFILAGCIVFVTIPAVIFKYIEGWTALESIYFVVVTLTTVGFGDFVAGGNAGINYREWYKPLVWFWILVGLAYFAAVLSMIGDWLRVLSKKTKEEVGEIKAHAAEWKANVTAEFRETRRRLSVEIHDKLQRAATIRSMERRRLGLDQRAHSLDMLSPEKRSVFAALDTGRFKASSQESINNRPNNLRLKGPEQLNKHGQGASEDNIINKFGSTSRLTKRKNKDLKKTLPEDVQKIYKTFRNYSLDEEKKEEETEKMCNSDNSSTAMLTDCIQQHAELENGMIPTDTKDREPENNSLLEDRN
Description: compounds were dissolved into the bathing solution. The effects of test compound on the currents were calculated at 0 mV using the following equations:
% inhibition = (1-post current/pre current) x 100
% inhibition vs compound concentrations were plotted in GraphPad Prism and calculated IC50. […]
hTREK-2 patch clamp assay
HEK293 cells stably expressing human TREK-2 are plated on glass coverslips, and voltage clamped in the whole-cell configuration of the patch clamp technique. Cells are voltage clamped at a holding potential of -80 mV and the stepped to 0 mV for 500 msec. The voltage is subsequently ramped from -120mV to +80 mV over a 500 msec duration. This step-ramp protocol is repeated every 10 sec. The bathing solution contained the following: 135 mM NaCl, 5 mM KCl, 2 mM CaCl2, 1 mM MgCl2, 5 mM D-Glucose, 10 mM HEPES, 10 mM sucrose (adjusted to pH 7.4 with NaOH, 300 mosmol/kg H2O). The pipette solution contained the following: 135 mM KCl, 2 mM MgCl2, 1 mM EGTA, 10 mM HEPES, 2 mM Na2ATP (adjusted to pH 7.35 with KOH, 285 mosmol/kg H2O). Test compounds are dissolved into the bathing solution. Experiments are terminated with the addition of the control compound (tert-butyl (3-((4-(benzyloxy)-2-methylphenyl)carbamoyl)-4-chlorophenyl)carbamate) so that maximal inhibition can be determined. The effects of test compound on the currents can be calculated at 0 mV using the […]

[5] = Aqueous solubility; type: physicochemical
[6] = Plasma protein binding, human (equilibrium dialysis); type: in vitro ADME; conditions: pH 7.4, read-out: PPB human (converted)
Description: Plasma protein binding and Brain homogenate binding: Determination of fraction unbound (f u) in plasma was conducted in vitro via equilibrium dialysis using HTDialysis (HTD) membrane plates. The top half of the plate was filled with 100 uL of Dubelco’s Phosphate Buffered Saline, pH 7.4 (DPBS). Compounds were diluted into plasma from each species (5 µM final concentration), which was aliquoted in triplicate to the ‘bottom half’ of the prepared HTD plate wells. The HTD plate was sealed and incubated for 6 hours at 37 °C. Following incubation, each well (both top and bottom halves) were transferred (20 µL) to the corresponding wells of a 96-shallow-well (V-bottom) plate. The daughter plates were then matrix-matched (DPBS side wells received equal volume of plasma, and plasma side wells received equal volume of DPBS), and extraction solution (120 µL; acetonitrile containing 50 nM carbamazepine as IS) was added to all wells of both daughter plates to precipitate protein and extract test article. The plates were then sealed and centrifuged (3500 rcf) for 10 minutes at ambient temperature. Supernatant (60 µL) from each well of the daughter plates was then transferred to the corresponding wells of new daughter plates (96-shallow-well, V bottom) containing water (Milli-Q, 60 µL/well), and the plates were sealed in preparation for LC-MS/MS analysis (see LC-MS/MS analysis method below).
The unbound fraction (f u) was calculated following the equation below, and mean values for each species were calculated from 3 replicates. […]
Fraction unbound for both plasma and brain samples was determined using Equation 4.
Equation 4 Determination of fraction unbound in plasma. […]

[7] = biological target: CYP 2D6 (Homo sapiens, UniProt P10635); test: CYP450 inhibition 2D6; type: in vitro ADME
Chain of CYP 2D6 (P10635 whole entry): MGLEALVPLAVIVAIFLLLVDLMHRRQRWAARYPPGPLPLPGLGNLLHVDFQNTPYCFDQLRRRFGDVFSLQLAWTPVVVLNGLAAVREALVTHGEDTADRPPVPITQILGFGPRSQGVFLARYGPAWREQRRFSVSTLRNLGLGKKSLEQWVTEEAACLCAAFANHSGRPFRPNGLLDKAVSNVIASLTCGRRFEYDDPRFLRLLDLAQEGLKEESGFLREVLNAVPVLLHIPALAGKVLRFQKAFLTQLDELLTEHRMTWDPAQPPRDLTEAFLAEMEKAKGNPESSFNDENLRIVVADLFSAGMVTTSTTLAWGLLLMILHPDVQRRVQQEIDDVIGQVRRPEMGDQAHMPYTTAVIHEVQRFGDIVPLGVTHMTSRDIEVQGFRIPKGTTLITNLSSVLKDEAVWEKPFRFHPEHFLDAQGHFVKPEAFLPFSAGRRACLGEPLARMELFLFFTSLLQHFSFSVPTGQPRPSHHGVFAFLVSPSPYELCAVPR

[8] = biological target: CYP 3A4 (Homo sapiens, UniProt P08684); test: CYP450 inhibition 3A4; type: in vitro ADME
Chain of CYP 3A4 (P08684 whole entry): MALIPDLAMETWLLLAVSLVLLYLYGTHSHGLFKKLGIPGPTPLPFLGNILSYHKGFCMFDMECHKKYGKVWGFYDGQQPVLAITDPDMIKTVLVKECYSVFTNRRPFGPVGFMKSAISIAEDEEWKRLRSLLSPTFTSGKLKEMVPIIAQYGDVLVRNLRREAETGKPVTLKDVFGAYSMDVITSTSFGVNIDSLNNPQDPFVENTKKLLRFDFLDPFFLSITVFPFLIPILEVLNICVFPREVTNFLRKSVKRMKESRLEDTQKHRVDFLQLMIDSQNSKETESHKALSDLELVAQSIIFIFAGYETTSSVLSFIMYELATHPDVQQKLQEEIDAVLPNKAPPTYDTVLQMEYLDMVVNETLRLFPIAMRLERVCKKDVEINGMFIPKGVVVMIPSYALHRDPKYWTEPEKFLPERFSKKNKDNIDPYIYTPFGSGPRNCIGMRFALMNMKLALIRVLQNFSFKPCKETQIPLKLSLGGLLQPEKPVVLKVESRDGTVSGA

[9] = IV/PO pharmacokinetic study, dog (beagle); type: in vivo; conditions: for clearance: beagle, dog, iv, read-out: CLp; for clearance / Vd / half-life / Cmax: plasma; for clearance / CLp / Vd / half-life: iv 1 mg/kg (10), 0.5 mg/kg (11); for Vd: read-out: Vss; for half-life: read-out: elimination t1/2 (converted); for Cmax / F (%) po: po 1 mg/kg
[10] = IV/PO pharmacokinetic study, NHP (cyno); type: in vivo; conditions: for clearance / Vd / half-life / Cmax: cynomolgus monkey, plasma; for clearance / Vd / half-life: iv 1 mg/kg; for clearance: read-out: CLp; for Vd: read-out: Vss; for half-life: read-out: elimination t1/2 (converted); for Cmax / F (%) po: po 1 mg/kg
[11] = biological target: Cav1.2 (Homo sapiens, UniProt Q13936); test: MPC ion channel panel, Cav1.2; type: cell-based
[12] = biological target: Kir2.1 (Homo sapiens, UniProt P63252); test: MPC ion channel panel, Kir2.1; type: cell-based
Chain of Kir2.1 (P63252 whole entry): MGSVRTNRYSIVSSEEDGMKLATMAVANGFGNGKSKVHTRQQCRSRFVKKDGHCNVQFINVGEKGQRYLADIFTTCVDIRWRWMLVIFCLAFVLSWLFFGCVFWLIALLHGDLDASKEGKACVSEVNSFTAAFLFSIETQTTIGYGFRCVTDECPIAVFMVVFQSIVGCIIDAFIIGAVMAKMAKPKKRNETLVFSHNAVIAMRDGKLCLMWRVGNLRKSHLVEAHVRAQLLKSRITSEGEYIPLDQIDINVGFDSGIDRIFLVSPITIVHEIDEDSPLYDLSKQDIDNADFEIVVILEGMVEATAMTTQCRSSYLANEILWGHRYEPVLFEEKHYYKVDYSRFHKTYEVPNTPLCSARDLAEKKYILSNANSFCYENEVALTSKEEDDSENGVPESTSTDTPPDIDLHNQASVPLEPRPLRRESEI

[13] = biological target: Kv1.5 (Homo sapiens, UniProt P22460); test: MPC ion channel panel, Kv1.5; type: cell-based
Chain of Kv1.5 (P22460 whole entry): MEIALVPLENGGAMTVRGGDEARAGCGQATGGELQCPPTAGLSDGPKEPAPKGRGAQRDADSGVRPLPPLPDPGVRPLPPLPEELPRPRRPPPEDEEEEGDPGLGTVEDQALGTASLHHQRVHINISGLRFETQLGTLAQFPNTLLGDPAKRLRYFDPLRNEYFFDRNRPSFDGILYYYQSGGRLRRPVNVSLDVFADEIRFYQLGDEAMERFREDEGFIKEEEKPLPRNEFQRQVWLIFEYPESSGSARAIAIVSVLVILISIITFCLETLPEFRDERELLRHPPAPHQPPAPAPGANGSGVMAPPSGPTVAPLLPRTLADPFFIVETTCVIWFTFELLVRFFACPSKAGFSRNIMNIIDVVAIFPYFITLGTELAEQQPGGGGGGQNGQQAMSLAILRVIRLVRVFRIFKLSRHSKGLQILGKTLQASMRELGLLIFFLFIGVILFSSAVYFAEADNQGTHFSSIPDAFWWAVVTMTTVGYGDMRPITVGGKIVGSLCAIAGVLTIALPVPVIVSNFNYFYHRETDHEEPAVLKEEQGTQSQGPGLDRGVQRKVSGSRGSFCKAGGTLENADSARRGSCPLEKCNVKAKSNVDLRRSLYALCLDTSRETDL

[14] = biological target: hERG (Homo sapiens, UniProt Q12809); test: Functional hERG inhibition; type: cell-based
Chain of hERG (Q12809 whole entry): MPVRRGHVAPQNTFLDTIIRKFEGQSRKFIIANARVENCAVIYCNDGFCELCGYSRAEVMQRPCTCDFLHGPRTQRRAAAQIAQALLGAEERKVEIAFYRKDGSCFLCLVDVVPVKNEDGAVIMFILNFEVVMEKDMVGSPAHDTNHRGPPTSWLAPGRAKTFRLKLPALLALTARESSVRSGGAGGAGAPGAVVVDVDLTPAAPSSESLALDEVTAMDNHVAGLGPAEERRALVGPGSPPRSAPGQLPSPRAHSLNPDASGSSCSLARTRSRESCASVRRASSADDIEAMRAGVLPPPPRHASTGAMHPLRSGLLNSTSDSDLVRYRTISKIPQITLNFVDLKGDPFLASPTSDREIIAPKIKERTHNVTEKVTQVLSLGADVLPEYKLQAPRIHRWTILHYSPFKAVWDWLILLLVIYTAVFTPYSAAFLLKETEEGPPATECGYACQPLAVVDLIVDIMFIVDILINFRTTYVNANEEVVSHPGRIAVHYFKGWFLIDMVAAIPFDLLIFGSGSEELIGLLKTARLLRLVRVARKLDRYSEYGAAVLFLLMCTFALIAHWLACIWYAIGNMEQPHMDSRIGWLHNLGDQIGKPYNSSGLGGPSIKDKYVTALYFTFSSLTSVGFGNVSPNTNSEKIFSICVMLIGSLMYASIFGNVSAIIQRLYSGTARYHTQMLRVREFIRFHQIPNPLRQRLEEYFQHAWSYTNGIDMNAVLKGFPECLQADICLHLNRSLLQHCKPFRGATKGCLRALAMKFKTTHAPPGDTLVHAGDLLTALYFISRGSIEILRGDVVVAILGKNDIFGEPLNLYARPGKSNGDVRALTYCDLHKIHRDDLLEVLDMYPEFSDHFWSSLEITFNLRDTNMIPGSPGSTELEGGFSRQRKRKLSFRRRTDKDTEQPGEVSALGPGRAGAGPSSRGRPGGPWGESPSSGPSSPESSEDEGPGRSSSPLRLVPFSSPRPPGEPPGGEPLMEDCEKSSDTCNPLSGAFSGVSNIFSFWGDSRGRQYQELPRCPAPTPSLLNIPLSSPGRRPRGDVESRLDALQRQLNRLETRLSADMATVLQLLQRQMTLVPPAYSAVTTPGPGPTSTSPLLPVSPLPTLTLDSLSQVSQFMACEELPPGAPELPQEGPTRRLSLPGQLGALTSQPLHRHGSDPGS

[15] = Embryo fetal developmental toxicity in vivo

CC(=O)N1CCC(n2ncc(Cl)c2C(=O)Nc2ncc(C#Cc3ccccc3)cc2C)CC1 [Compound 10, 1-(1-Acetylpiperidin-4-yl)-4-chloro-N-(3-methyl-5-(phenylethynyl)pyridin-2-yl)-1H-pyrazole-5-carboxamide]
IC50 [1]: 0.28 µM
IC50 [2]: 0.23 µM
IC50 [3]: 0.088 µM
IC50 [4]: 0.081 µM
solubility [5]: 31 µM (≈ 14.3 µg/mL)
fraction unbound at 6 h, 5 µM [6]: 0.01
IC50 [7]: 10.3 µM
IC50 [8]: 10.8 µM
clearance [9]: < 0.12 L/h/kg
CLp [9]: 0.114 L/h/kg
Vd [9]: 5.9 L/kg
half-life [9]: 56 h
Cmax [9]: 0.315 µg/mL
F (%) po [9]: 97%
clearance [10]: 0.798 L/h/kg
Vd [10]: 2.1 L/kg
half-life [10]: 3.3 h
Cmax [10]: 0.152 µg/mL
F (%) po [10]: 34%
inhibition at 10 µM [11]: ≤ 50%
inhibition at 10 µM [12]: ≤ 50%
inhibition at 10 µM [13]: ≤ 50%
IC50 [14]: 6.7 µM
embryo fetal developmental toxicity [15]: positive
embryo fetal developmental toxicity ([15]; listed as ONO-9517601): positive signal

CC(=O)N1CC[C@@H](n2ncc(Cl)c2C(=O)Nc2ncc(C#Cc3ccc(F)cc3)cc2C)[C@H](F)C1 [Compound 11, 1-((3R,4R)-1-Acetyl-3-fluoropiperidin-4-yl)-4-chloro-N-(5-((4-fluorophenyl)ethynyl)-3-methylpyridin-2-yl)-1H-pyrazole-5-carboxamide]
IC50 [1]: 0.29 µM
IC50 [2]: 0.44 µM
IC50 [3]: 0.2 µM
IC50 [4]: 0.11 µM
solubility [5]: 14 µM (≈ 6.97 µg/mL)
fraction unbound at 6 h, 5 µM [6]: 0.048
IC50 [7]: 7 µM
IC50 [8]: 10.5 µM
clearance [9]: < 0.12 L/h/kg
CLp [9]: 0.09 L/h/kg
Vd [9]: 7.1 L/kg
half-life [9]: 76 h
Cmax [9]: 0.263 µg/mL
F (%) po [9]: 100%
clearance [10]: 0.39 L/h/kg
Vd [10]: 4.4 L/kg
half-life [10]: 9.3 h
Cmax [10]: 0.26 µg/mL
F (%) po [10]: 89%
inhibition at 10 µM [11]: ≤ 50%
inhibition at 10 µM [12]: ≤ 50%
inhibition at 10 µM [13]: ≤ 50%
IC50 [14]: 4.3 µM
embryo fetal developmental toxicity [15]: positive
embryo fetal developmental toxicity ([15]; listed as ONO-7927846): positive signal
